Data as given in publication PMC7180948, “New Insights into 4-Anilinoquinazolines as Inhibitors of Cardiac Troponin I–Interacting Kinase (TNNi3K)” (Molecules, 2020).

Columns and labels:
Test in all cases: biochemical
Design in all cases: KINOMEscan competition binding panel (Eurofins DiscoverX), single concentration, percent inhibition
Conditions in all cases: read-out: 15 at 1 µM % inhibition
NEK9 = NEK9 (Homo sapiens, UniProt Q8TD19)
Method in brief: (§1)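 A single 1 µM concentration of each compound is screened across upwards of 400 human kinases using the KINOMEscan format.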

MST1 = target: T1, MST1 (Homo sapiens, UniProt Q13043)
T1 construct: gene STK4
Method in brief: as §1

MRCKA = target: T2, MRCKA (Homo sapiens, UniProt Q5VT25)
T2 construct: gene CDC42BPA
Method in brief: as §1

ARK5 = target: T3, ARK5 (Homo sapiens, UniProt O60285)
T3 construct: gene NUAK1
Method in brief: as §1

EPHA1 = EPHA1 (Homo sapiens, UniProt P21709)
Method in brief: as §1

IRAK4 = IRAK4 (Homo sapiens, UniProt Q9NWZ3)
Method in brief: as §1

FRK = FRK (Homo sapiens, UniProt P42685)
Method in brief: as §1

SIK = target: T4, SIK (Homo sapiens, UniProt P57059)
T4 construct: gene SIK1
Method in brief: as §1

DRAK1 = target: T5, DRAK1 (Homo sapiens, UniProt Q9UEE5)
T5 construct: gene STK17A
Method in brief: as §1

DAPK3 = DAPK3 (Homo sapiens, UniProt O43293)
Method in brief: as §1

VEGFR2 = target: T6, VEGFR2 (Homo sapiens, UniProt P35968)
T6 construct: gene KDR
Method in brief: as §1

CDK2 = CDK2 (Homo sapiens, UniProt P24941)
Method in brief: as §1

FLT1 = FLT1 (Homo sapiens, UniProt P17948)
Method in brief: as §1

NEK6 = NEK6 (Homo sapiens, UniProt Q9HC98)
Method in brief: as §1

[1] = target: T7, ABL1(F317I)-phosphorylated (Homo sapiens, UniProt P00519, F317I)
T7 construct: phosphorylated
Method in brief: as §1

[2] = target: T8, ABL1(Q252H)-nonphosphorylated (Homo sapiens, UniProt P00519, Q252H)
T8 construct: nonphosphorylated
Method in brief: as §1

MKK7 = target: T9, MKK7 (Homo sapiens, UniProt O14733)
T9 construct: gene MAP2K7
Method in brief: as §1

MAP3K3 = MAP3K3 (Homo sapiens, UniProt Q99759)
Method in brief: as §1

FLT3-autoinhibited = FLT3-autoinhibited (Homo sapiens, UniProt P36888)
Method in brief: as §1

MYLK4 = MYLK4 (Homo sapiens, UniProt Q86YV6)
Method in brief: as §1

[3] = target: T10, RSK3(Kin.Dom.2-C-terminal) (Homo sapiens, UniProt Q15349)
T10 construct: gene RPS6KA2; Kin.Dom.2-C-terminal
Method in brief: as §1

KIT(D816V) = KIT(D816V) (Homo sapiens, UniProt P10721, D816V)
Method in brief: as §1

IKK-beta = target: T11, IKK-beta (Homo sapiens, UniProt O14920)
T11 construct: gene IKBKB
Method in brief: as §1

ERN1 = ERN1 (Homo sapiens, UniProt O75460)
Method in brief: as §1

T6 sequence (P35968 whole entry): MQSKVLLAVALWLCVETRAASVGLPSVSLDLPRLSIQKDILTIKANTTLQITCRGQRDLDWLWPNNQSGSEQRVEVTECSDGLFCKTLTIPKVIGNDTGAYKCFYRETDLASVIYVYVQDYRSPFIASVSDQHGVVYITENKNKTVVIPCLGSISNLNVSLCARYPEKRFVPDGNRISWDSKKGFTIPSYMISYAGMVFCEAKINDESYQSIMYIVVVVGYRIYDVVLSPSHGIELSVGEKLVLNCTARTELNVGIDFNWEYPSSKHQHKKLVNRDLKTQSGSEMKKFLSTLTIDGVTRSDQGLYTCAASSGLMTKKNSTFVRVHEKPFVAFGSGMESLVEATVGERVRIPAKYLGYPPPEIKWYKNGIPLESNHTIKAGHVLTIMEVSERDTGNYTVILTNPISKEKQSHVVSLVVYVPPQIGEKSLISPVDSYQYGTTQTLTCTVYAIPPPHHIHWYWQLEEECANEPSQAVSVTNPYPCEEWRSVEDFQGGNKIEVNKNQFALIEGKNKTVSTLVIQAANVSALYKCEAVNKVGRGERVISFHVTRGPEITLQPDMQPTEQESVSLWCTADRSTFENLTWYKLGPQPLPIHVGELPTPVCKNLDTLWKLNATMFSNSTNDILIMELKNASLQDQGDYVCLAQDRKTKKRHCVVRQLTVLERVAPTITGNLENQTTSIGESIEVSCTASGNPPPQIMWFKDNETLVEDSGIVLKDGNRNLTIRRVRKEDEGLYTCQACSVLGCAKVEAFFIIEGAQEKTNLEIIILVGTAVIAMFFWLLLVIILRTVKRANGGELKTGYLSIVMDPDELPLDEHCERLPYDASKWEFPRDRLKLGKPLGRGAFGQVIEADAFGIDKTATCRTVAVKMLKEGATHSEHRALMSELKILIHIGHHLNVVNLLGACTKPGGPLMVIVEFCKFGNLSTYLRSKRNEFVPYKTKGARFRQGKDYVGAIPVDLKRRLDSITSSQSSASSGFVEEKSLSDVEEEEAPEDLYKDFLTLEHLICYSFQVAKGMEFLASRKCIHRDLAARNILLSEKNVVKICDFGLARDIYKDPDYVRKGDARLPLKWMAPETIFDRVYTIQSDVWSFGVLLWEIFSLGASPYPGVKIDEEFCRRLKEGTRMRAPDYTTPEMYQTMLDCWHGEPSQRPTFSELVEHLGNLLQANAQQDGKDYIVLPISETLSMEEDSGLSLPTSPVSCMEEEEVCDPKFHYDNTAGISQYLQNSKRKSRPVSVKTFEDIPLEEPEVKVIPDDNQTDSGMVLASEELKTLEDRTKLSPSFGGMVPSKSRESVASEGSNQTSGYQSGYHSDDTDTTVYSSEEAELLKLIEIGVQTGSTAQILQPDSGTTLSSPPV
T4 sequence (P57059 whole entry): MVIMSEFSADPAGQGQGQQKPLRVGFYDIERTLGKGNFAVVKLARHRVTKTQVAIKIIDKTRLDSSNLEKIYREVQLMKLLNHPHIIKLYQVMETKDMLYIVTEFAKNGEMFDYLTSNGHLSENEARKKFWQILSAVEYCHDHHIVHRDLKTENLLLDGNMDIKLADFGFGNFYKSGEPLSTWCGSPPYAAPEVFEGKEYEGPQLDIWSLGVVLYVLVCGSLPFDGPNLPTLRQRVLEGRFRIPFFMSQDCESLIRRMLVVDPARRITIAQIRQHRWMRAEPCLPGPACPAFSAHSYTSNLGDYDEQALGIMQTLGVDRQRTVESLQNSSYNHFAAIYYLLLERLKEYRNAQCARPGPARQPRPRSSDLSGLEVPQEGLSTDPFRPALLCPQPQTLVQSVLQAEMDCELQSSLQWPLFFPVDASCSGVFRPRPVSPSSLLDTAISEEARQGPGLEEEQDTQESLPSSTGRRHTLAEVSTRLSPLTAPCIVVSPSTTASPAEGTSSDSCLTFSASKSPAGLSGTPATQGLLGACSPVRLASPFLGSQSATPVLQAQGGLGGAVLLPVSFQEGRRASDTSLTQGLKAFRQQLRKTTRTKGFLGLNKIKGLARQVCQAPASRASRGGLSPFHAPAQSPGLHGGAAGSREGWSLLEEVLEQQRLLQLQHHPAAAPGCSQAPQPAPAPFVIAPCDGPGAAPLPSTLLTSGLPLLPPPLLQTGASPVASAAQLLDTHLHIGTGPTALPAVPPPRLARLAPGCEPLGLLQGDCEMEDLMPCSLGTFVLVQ
T10 sequence (Q15349 whole entry): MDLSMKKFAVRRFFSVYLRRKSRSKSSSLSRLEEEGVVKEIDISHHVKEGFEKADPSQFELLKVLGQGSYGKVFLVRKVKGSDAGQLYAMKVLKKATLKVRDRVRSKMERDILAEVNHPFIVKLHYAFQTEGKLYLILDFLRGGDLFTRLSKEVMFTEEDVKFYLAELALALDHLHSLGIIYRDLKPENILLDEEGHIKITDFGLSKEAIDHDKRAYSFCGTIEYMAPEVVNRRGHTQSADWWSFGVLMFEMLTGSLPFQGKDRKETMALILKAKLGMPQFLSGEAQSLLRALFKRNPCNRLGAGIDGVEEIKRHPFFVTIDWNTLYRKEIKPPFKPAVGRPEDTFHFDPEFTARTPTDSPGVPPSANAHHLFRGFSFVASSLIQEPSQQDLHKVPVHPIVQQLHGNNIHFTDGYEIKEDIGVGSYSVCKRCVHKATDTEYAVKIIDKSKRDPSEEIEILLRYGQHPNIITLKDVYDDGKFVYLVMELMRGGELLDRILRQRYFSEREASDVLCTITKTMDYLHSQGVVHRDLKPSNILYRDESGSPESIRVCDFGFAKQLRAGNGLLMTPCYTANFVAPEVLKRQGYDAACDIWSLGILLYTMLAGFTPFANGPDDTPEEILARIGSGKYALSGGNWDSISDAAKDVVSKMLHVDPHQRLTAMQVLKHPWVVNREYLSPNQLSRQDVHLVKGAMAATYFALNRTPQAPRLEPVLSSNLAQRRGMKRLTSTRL
Sequence of FRK (P42685 whole entry): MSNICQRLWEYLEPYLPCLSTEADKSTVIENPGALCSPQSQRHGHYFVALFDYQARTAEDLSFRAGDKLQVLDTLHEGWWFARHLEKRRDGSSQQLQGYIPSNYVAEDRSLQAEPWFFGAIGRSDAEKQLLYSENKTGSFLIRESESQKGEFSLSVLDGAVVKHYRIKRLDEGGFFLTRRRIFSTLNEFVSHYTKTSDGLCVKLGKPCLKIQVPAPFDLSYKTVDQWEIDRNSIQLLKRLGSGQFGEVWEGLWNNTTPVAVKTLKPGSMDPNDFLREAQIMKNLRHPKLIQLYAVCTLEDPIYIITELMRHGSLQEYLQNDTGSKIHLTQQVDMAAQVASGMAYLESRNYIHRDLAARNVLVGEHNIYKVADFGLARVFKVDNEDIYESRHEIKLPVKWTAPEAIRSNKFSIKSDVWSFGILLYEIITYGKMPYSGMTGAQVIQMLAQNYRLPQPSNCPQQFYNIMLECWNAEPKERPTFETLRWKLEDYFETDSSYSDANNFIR
T3 sequence (O60285 whole entry): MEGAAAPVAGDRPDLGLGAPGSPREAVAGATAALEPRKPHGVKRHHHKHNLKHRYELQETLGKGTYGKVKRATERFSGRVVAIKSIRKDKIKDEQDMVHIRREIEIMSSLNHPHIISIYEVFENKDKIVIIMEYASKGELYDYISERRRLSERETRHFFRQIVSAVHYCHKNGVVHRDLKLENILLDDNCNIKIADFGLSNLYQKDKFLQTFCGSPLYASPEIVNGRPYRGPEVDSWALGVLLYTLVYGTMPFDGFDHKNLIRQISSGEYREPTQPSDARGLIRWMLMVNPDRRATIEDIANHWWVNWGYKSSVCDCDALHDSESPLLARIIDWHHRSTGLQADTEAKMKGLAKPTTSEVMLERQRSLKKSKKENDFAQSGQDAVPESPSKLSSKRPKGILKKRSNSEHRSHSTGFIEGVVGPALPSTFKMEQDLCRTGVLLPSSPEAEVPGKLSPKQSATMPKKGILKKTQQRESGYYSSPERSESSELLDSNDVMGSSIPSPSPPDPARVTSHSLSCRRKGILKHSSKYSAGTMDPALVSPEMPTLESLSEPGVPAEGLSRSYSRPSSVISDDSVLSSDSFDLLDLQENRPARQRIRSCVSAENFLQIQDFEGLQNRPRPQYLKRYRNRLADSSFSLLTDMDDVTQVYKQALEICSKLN
T5 sequence (Q9UEE5 whole entry): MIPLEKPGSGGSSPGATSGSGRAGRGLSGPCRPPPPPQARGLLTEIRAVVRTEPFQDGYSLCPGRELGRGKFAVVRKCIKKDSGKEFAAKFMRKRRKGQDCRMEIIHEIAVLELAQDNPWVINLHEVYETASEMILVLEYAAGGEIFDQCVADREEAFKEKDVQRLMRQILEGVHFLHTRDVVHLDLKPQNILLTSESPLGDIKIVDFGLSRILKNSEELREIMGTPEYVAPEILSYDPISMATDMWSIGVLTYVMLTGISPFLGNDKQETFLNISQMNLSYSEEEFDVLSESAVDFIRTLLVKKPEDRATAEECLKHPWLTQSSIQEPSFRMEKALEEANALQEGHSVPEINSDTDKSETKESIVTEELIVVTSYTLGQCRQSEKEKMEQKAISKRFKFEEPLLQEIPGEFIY
Sequence of NEK6 (Q9HC98 whole entry): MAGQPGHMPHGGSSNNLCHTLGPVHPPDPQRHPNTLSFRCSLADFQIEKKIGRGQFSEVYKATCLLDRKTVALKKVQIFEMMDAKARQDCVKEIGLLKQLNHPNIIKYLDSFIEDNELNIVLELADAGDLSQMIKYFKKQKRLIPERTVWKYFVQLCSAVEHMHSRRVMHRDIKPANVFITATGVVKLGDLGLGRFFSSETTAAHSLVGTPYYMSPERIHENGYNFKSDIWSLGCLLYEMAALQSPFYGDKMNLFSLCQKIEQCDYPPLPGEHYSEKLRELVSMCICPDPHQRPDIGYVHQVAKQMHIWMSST

CNS(=O)(=O)c1ccc(N(C)C)c(Nc2nc(C)nc3cc(OC)c(OC)cc23)c1 [compound 15, 3-((6,7-dimethoxy-2-methylquinazolin-4-yl)amino)-4-(dimethylamino)-N-methylbenzenesulfonamide]
inhibition at 1 µM (NEK9): 0%
inhibition at 1 µM (MST1): 5%
inhibition at 1 µM (MRCKA): 0%
inhibition at 1 µM (ARK5): 0%
inhibition at 1 µM (EPHA1): 0%
inhibition at 1 µM (IRAK4): 0%
inhibition at 1 µM (FRK): 0%
inhibition at 1 µM (SIK): 13%
inhibition at 1 µM (DRAK1): 0%
inhibition at 1 µM (DAPK3): 0%
inhibition at 1 µM (VEGFR2): 12%
inhibition at 1 µM (CDK2): 0%
inhibition at 1 µM (FLT1): 0%
inhibition at 1 µM (NEK6): 0%
inhibition at 1 µM [1]: 22%
inhibition at 1 µM [2]: 33%
inhibition at 1 µM (MKK7): 30%
inhibition at 1 µM (MAP3K3): 44%
inhibition at 1 µM (FLT3-autoinhibited): 0%
inhibition at 1 µM (MYLK4): 0%
inhibition at 1 µM [3]: 0%
inhibition at 1 µM (KIT(D816V)): 4%
inhibition at 1 µM (IKK-beta): 37%
inhibition at 1 µM (ERN1): 3%
